Experimental data reported in publication PMC4106271 (Journal of Medicinal Chemistry, 2014).

Legend:
[1] = molecular target: T1, α1β1γ2S GABAA receptors (Homo sapiens, UniProt P14867+P18505); experiment: Two-microelectrode voltage clamp, IGABA modulation, α1β1γ2S; assay type: cell-based; conditions: for nH: Hill coefficient
T1 construct: expressed in transfected cells; host or cells: Xenopus laevis oocytes injected with cRNA (pCMV cDNA templates)
Procedure: Preparation of stage V–VI oocytes from X. laevis and synthesis of capped runoff poly(A) cRNA transcripts from linearized cDNA templates (pCMV vector) was performed as previously described.[49] […] Follicle membranes from isolated oocytes were enzymatically digested with 2 mg/mL collagenase (type 1A, Sigma–Aldrich, Vienna, Austria).
(§1) Selected oocytes were injected with 10–50 nL of DEPC-treated water (diethyl pyrocarbonate, Sigma, Vienna, Austria) containing the different GABAA cRNAs at a concentration of approximately 300–3000 pg·nL^–1·subunit^–1.
To ensure expression of the γ2S subunit in the case of α1/2/3/5β2/3γ2S receptors, cRNAs were mixed in a ratio of 1:1:10. […] The amount of cRNAs was determined by means of a NanoDrop ND-1000 (Kisker-Biotech, Steinfurt, Germany).
(§2) Oocytes were stored at +18 °C in modified ND96 solution (90 mM NaCl, 1 mM CaCl2, 1 mM KCl, 1 mM MgCl2·6H2O, and 5 mM HEPES [4-(2-hydroxyethyl)-1-piperazineethanesulfonic acid], pH 7.4, all from Sigma–Aldrich, Vienna, Austria).
(§3) Chloride currents through GABAA receptors (IGABA) were measured at room temperature (+21 ± 1 °C) by means of a two-microelectrode voltage clamp technique making use of a Turbo TEC-05X amplifier (npi electronic, Tamm, Germany). IGABA were elicited at a holding potential of –70 mV. Data acquisition was carried out by means of an Axon Digidata 1322A interface using pCLAMP v.10 (Molecular Devices, Sunnyvale, CA). The modified ND96 solution was used as bath solution.
(§4) GABA and the studied derivatives were applied by means of the ScreeningTool (npi electronic, Tamm, Germany) fast perfusion system as described previously.[50] To elicit IGABA, the chamber was perfused with 120 μL of GABA- or compound-containing solution at a volume rate of 300 μL/s.[34] Care was taken to account for possible slow recovery from increasing levels of desensitization in the presence of high drug concentrations. The duration of washout periods was therefore extended from 1.5 min (<10 μM compounds) to 30 min (≥10 μM compounds). Oocytes with maximal current amplitudes >3 μA were discarded to exclude voltage clamp errors.
Stimulation of chloride currents by modulators of the GABAA receptor was measured at a GABA concentration eliciting between 3% and 7% of the maximal current amplitude (EC3–7). The GABA EC3–7 was determined for each oocyte individually. Enhancement of the chloride current was defined as (IGABA+compd/IGABA) – 1, where IGABA+compd is the current response in the presence of a given compound and IGABA is the control GABA current. IGABA-max reflects the maximal IGABA enhancement. […] Statistical significance was calculated by paired Student t-test with a confidence interval of <0.05.

[2] = molecular target: T2, α1β3γ2S GABAA receptors (Homo sapiens, UniProt P14867+P28472); experiment: Two-microelectrode voltage clamp, IGABA modulation, α1β3γ2S; assay type: cell-based; conditions: for nH: Hill coefficient
T2 construct: expressed in transfected cells; host or cells: Xenopus laevis oocytes injected with cRNA (pCMV cDNA templates)
T2 sequence (P14867 28-456): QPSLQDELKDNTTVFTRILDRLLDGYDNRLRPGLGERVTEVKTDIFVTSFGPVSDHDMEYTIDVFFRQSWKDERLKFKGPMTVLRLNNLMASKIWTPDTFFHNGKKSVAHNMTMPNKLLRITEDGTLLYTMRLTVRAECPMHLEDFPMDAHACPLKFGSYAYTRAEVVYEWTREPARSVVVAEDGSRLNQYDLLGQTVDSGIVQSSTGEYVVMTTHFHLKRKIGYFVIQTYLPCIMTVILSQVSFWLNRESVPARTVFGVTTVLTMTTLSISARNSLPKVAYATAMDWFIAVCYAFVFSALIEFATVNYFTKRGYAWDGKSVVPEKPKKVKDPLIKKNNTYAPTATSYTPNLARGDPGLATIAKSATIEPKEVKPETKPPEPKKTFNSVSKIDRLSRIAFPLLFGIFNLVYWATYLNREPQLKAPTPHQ
T2 sequence (P28472 26-473): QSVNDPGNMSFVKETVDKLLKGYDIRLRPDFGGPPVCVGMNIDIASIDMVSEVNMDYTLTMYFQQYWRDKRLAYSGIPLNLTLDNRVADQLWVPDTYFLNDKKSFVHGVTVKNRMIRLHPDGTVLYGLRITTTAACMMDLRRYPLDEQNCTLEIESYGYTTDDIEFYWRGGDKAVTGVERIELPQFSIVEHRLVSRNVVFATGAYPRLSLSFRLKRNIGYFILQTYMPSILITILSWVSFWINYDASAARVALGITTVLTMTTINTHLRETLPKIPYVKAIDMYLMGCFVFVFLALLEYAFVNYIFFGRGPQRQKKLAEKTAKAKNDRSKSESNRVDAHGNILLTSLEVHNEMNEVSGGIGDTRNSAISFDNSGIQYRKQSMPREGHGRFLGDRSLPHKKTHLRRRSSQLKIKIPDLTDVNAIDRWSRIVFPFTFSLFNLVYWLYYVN
T2 sequence (P18507 40-467 isoform P18507-1 partner limits assumed): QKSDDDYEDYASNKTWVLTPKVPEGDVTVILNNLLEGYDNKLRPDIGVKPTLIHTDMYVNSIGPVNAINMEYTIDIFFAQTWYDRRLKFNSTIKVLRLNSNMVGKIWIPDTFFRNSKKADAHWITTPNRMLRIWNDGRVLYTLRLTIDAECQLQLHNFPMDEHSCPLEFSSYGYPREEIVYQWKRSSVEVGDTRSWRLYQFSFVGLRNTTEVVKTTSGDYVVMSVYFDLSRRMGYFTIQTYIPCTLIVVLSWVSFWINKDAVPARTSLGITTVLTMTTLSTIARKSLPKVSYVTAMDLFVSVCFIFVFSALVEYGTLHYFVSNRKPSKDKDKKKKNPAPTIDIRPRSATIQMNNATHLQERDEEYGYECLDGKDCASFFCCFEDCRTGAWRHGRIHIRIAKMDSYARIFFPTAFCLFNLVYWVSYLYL
Procedure: Preparation of stage V–VI oocytes from X. laevis and synthesis of capped runoff poly(A) cRNA transcripts from linearized cDNA templates (pCMV vector) was performed as previously described.[49] Female X. laevis frogs (Nasco) were anesthetized by 15 min incubation in a 0.2% MS-222 (methanesulfonate salt of 3-aminobenzoic acid ethyl ester; Sigma–Aldrich, Vienna, Austria) solution before removal of parts of the ovaries. Follicle membranes from isolated oocytes were enzymatically digested with 2 mg/mL collagenase (type 1A, Sigma–Aldrich, Vienna, Austria).
as §1
To ensure expression of the γ2S subunit in the case of α1/2/3/5β2/3γ2S receptors, cRNAs were mixed in a ratio of 1:1:10. For expression of receptors composed of α4β2γ2S and α1β1γ2S, cRNAS were mixed in a ratio of 3:1:10. The amount of cRNAs was determined by means of a NanoDrop ND-1000 (Kisker-Biotech, Steinfurt, Germany).
as §2
as §3, with “solution. Microelectrodes were filled with 2 M KCl and had resistances between 1 and 3 MΩ.” for “solution.”
as §4, with “Oocytes with maximal current amplitudes >3 μA were discarded to exclude voltage clamp errors.” left out
Stimulation of chloride currents by modulators of the GABAA receptor was measured at a GABA concentration eliciting between 3% and 7% of the maximal current amplitude (EC3–7). The GABA EC3–7 was determined for each oocyte individually. […] Statistical significance was calculated by paired Student t-test with a confidence interval of <0.05.

T1 sequence (P14867 28-456): as the sequence (P14867 28-456) above
T1 sequence (P18505 26-474): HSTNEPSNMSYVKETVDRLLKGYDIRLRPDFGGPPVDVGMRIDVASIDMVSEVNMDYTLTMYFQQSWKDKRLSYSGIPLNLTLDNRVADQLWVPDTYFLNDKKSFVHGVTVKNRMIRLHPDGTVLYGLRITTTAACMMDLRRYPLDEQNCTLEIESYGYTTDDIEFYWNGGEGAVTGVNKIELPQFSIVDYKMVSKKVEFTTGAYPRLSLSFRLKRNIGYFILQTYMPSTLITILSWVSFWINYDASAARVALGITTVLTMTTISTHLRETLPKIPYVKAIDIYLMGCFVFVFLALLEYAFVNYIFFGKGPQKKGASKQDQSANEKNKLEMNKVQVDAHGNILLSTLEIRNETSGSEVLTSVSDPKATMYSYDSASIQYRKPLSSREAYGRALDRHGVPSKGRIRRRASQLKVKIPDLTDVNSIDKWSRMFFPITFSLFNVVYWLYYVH
T1 sequence (P18507 40-467 isoform P18507-1 partner limits assumed): as the sequence (P18507 40-467 isoform P18507-1 partner limits assumed) above

SMILES	EC50 [1]	nH [1]	EC50 [2]	nH [2]
CCCN(CCC)C(=O)/C=C/C=C/c1ccc2c(c1)OCO2 [Compound 23, (2E,4E)-5-(1,3-benzodioxol-5-yl)-N,N-dipropyl-2,4-pentadienamide]	57.5 ± 7.3 µM	1.8 ± 0.1	34.7 ± 5.7 µM	1.9 ± 0.2
CCCCN(CCCC)C(=O)/C=C/C=C/c1ccc2c(c1)OCO2 [Compound 25, (2E,4E)-5-(1,3-Benzodioxol-5-yl)-N,N-dibutyl-2,4-pentadienamide]	15.9 ± 4.9 µM	1.3 ± 0.6	29.5 ± 2.9 µM	1.5 ± 0.1
